According to publication PMC3480357, “Fragment-Hopping-Based Discovery of a Novel Chemical Series of Proto-Oncogene PIM-1 Kinase Inhibitors” (PLoS ONE, 2012):
pIC50: −log10 of the molar value. Like-named read-outs stand apart in the source and are kept apart here.

Key:
FLT3 [1] = target: T1, FLT3 (Homo sapiens, UniProt P36888); assay: FLT3 kinase ADP Hunter Plus assay; assay type: biochemical; conditions: for FLT3 experimental hit classification: hit definition IC50 < 10µM
T1 construct: purchased Invitrogen PV3182
T1 sequence (P36888 564-993 limits assumed): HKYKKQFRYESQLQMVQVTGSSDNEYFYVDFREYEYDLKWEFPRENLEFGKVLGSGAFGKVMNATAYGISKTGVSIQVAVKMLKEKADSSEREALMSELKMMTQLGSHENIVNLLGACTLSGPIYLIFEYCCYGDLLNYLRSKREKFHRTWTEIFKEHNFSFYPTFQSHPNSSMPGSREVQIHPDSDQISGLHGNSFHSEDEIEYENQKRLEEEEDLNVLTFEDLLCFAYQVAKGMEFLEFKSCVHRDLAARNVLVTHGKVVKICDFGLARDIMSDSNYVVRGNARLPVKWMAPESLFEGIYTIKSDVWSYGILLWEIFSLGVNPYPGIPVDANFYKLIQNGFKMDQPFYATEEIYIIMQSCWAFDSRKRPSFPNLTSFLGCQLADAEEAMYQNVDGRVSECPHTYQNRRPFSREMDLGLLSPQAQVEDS
Protocol: Kinase activity was measured with the commercial ADP Hunter™ Plus assay (DiscoveRx Ref. #33-016), a homogeneous assay measuring ADP accumulation, as a universal product of kinase activity. The assay was conducted following the manufacturer’s recommendations and adapting the protein and substrate concentrations for optimal conditions. The kinase assay buffer was 15 mM HEPES, pH 7.4, 20 mM NaCl, 1 mM EGTA, 0.02% Tween-20, 10 mM MgCl2 and 0.1 mg/ml BGG (bovine γ-globulin). All PIM kinase assays were performed with 100 µM ABLtide ([…]) from GenScript as the peptide substrate and 100 µM ATP. Protein concentration (from Invitrogen, PV3182) was 0.4 ng/µl. To calculate the IC50 of the ETP-compounds, serial 1∶3 dilutions were prepared and the reaction was started with the addition of ATP. The reaction was incubated for 1 h at 37°C. Reagents A and B (DiscoveRx) were sequentially added to the wells, and the plates were incubated for 30 min at 25°C. Fluorescence counts were read in an EnVision 2104 Multilabel Reader (Perkin Elmer) with the recommended settings (544 and 580 nm as the excitation and emission wavelengths, respectively). Values were plotted against the inhibitor concentrations and fit to a sigmoid dose–response curve using ActivityBase software.

PIM-3 [2] = target: T2, PIM-3 (Homo sapiens, UniProt Q86V86); design: method as in PMID 21051136; conditions: cited from earlier work
JAK2 = JAK2 (Homo sapiens, UniProt O60674); design: method as in PMID 21051136; conditions: 10 µM; average of two data points; cited from earlier work
JAK2, sequence (O60674 whole entry, species assumed): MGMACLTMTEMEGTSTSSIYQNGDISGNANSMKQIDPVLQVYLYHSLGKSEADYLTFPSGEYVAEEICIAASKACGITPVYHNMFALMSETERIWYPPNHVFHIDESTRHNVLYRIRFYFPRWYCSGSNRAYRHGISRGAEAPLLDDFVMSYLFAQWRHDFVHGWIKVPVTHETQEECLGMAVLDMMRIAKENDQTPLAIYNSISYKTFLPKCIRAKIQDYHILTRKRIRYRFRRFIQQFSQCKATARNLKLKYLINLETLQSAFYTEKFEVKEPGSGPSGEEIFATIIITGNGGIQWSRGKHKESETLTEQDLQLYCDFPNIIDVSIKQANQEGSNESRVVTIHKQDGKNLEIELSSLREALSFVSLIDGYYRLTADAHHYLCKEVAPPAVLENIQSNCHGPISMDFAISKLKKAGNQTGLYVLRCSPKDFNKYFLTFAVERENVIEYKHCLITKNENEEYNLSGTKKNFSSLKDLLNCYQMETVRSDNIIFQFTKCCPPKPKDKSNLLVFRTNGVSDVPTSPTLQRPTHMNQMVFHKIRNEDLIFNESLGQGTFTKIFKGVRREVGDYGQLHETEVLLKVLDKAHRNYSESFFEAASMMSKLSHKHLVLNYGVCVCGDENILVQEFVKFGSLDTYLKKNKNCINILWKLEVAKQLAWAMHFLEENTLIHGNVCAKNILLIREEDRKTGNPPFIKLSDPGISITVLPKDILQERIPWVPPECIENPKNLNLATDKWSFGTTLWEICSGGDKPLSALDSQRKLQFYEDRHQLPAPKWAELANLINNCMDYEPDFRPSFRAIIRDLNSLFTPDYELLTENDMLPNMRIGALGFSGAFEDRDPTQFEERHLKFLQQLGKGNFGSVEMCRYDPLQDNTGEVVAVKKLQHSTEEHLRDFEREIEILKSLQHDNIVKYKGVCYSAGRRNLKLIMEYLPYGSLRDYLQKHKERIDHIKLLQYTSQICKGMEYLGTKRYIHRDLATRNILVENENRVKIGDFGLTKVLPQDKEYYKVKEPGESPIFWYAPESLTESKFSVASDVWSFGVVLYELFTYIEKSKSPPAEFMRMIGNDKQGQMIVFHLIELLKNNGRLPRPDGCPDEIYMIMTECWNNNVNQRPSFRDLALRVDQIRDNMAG

MET = MET (Homo sapiens, UniProt P08581); design: method as in PMID 21051136; conditions: 10 µM; average of two data points; cited from earlier work
FLT3 [3] = target: T1, FLT3; design: method as in PMID 21051136; conditions: 10 µM; cited from earlier work
PIM-3 [4] = target: T2, PIM-3; assay: PIM-3 kinase ADP Hunter Plus assay; assay type: biochemical; conditions: 100 µM ATP
Protocol: Kinase activity was measured with the commercial ADP Hunter™ Plus assay (DiscoveRx Ref. #33-016), a homogeneous assay measuring ADP accumulation, as a universal product of kinase activity. The assay was conducted following the manufacturer’s recommendations and adapting the protein and substrate concentrations for optimal conditions. The kinase assay buffer was 15 mM HEPES, pH 7.4, 20 mM NaCl, 1 mM EGTA, 0.02% Tween-20, 10 mM MgCl2 and 0.1 mg/ml BGG (bovine γ-globulin). All PIM kinase assays were performed with 100 µM PIMtide ([…]) as the peptide substrate and 100 µM ATP. The protein concentrations were 50, 350 and 500 ng/µl for PIM-1, 2 and 3, respectively. To calculate the IC50 of the ETP-compounds, serial 1∶5 dilutions were prepared and the reaction was started with the addition of ATP. The reaction was incubated for 1 h at 25°C. Reagents A and B (DiscoveRx) were sequentially added to the wells, and the plates were incubated for 30 min at 37°C. Fluorescence counts were read in a Victor instrument (Perkin Elmer) with the recommended settings (544 and 580 nm as the excitation and emission wavelengths, respectively). Values were plotted against the inhibitor concentrations and fit to a sigmoid dose–response curve using GraphPad software.

IKK-β = IKK-β (Homo sapiens, UniProt O14920); assay: ProQinase kinase panel, % inhibition at fixed concentration; assay type: biochemical; conditions: average of two data points, read-out: IKK-β percentage of inhibition
IKK-β, sequence (O14920 whole entry, species assumed): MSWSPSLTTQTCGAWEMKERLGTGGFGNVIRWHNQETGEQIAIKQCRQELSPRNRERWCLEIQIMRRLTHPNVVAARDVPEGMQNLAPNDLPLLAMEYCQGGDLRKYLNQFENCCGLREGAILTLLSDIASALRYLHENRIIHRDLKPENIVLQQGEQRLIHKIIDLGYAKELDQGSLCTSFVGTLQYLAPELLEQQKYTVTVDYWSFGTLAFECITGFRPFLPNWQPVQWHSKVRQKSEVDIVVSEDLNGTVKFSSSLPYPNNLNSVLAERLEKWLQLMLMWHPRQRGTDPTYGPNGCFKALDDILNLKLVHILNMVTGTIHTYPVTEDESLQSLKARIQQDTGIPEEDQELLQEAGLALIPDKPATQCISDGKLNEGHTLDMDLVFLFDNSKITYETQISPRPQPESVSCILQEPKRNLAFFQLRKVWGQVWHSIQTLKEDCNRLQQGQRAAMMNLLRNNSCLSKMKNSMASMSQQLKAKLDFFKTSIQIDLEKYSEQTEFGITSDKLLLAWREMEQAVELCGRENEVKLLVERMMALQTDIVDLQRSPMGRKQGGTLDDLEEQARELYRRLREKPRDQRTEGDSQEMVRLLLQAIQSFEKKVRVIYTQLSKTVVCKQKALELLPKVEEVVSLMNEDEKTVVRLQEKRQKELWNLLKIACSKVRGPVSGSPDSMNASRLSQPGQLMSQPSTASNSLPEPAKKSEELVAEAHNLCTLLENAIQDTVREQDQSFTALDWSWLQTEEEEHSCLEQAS
Protocol: (§1) Off-target selectivity profiling was also performed for compounds 3 and 8 against a panel of 20 kinases (Table 3). […] When taking the differences in screening concentrations into consideration, we can only make unequivocal conclusions about FLT3 (based on the IC50 determination). […] The slight improvement observed for the remainder of the screened targets was likely due to the difference in concentrations.

MEK1 = MEK1 (Homo sapiens, UniProt Q02750); assay: as above; assay type: biochemical; conditions: read-out: MEK1 percentage of inhibition
MEK1, sequence (Q02750 whole entry, species assumed): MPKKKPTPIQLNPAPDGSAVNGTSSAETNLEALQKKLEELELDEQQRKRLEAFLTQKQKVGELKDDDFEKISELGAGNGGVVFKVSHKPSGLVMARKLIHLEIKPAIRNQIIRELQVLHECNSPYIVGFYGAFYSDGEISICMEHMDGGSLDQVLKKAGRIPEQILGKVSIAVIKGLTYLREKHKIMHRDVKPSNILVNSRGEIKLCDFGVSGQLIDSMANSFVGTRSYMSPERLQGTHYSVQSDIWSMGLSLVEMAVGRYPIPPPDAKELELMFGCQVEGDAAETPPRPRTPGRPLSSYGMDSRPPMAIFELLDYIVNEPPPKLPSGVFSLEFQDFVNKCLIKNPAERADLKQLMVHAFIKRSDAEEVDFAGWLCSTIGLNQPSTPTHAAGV
Protocol: as §1

[5] = Metabolic stability in liver microsomes (Human); assay type: in vitro ADME; conditions: for Met. Stab. (Human), percentage of the original compound that remained: 1 µM, liver microsomes, 15 minutes
[6] = Metabolic stability in liver microsomes (Mouse); assay type: in vitro ADME; conditions: 1 µM, 15 minutes
[7] = Metabolic stability in liver microsomes (Rat); assay type: in vitro ADME; conditions: 1 µM, 15 minutes
PAMPA passive diffusion = assay type: in vitro ADME; conditions: LC/MS/MS after 4 hours of incubation at 2 µM; for Papp at 4 h, 2 µM: PAMPA, read-out: PAMPA Pe
Protocol: Therefore, to obtain more detailed information on this critical point, preliminary in vitro ADME profiling was performed for molecule 3. This profiling was mainly focused on hERG activity and on pharmacokinetics parameters, such as metabolic stability and PAMPA (an in vitro model for passive diffusion).

PIM-2 = PIM-2 (Homo sapiens, UniProt Q9P1W9); assay: PIM-2 kinase ADP Hunter Plus assay; assay type: biochemical; conditions: 100 µM ATP
PIM-2, sequence (Q9P1W9 whole entry): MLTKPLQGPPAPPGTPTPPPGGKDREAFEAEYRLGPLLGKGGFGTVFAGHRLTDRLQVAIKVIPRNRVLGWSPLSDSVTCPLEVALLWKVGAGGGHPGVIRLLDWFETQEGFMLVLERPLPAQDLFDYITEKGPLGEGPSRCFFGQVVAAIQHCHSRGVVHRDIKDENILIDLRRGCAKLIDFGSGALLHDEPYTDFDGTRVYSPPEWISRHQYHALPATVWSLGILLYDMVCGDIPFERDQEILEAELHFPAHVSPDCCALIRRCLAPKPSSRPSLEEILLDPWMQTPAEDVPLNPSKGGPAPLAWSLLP

FAK = FAK (Homo sapiens, UniProt Q05397); assay: ProQinase kinase panel, % inhibition at fixed concentration; assay type: biochemical
FAK, sequence (Q05397 whole entry, species assumed): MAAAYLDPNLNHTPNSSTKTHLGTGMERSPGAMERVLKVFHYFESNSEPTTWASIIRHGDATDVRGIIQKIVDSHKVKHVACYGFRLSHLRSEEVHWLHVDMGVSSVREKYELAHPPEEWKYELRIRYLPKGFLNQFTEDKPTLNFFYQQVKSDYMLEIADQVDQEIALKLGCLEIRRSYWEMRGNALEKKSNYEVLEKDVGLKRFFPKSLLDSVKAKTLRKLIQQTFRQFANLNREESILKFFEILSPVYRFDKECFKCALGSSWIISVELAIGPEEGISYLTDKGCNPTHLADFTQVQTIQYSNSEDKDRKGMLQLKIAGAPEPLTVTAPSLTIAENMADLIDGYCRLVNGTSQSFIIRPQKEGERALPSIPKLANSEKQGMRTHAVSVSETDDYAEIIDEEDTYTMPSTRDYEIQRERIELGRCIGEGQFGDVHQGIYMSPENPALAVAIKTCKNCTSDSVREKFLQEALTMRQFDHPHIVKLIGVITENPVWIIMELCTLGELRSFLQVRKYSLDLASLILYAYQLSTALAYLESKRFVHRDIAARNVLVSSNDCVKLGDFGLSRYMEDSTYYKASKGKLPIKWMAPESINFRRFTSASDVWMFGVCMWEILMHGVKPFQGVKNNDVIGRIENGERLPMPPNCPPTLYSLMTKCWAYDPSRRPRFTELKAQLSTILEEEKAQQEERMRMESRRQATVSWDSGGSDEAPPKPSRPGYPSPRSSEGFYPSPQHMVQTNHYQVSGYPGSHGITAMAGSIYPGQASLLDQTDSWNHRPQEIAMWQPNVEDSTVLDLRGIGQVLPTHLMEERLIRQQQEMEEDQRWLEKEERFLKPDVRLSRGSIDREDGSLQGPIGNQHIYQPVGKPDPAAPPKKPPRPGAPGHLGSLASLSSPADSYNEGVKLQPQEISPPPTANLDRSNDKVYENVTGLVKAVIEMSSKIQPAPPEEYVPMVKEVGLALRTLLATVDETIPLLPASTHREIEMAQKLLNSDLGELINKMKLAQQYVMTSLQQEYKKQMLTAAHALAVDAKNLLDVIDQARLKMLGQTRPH

KIT = KIT (Homo sapiens, UniProt P10721); assay: as above; assay type: biochemical
KIT, sequence (P10721 26-976, species assumed): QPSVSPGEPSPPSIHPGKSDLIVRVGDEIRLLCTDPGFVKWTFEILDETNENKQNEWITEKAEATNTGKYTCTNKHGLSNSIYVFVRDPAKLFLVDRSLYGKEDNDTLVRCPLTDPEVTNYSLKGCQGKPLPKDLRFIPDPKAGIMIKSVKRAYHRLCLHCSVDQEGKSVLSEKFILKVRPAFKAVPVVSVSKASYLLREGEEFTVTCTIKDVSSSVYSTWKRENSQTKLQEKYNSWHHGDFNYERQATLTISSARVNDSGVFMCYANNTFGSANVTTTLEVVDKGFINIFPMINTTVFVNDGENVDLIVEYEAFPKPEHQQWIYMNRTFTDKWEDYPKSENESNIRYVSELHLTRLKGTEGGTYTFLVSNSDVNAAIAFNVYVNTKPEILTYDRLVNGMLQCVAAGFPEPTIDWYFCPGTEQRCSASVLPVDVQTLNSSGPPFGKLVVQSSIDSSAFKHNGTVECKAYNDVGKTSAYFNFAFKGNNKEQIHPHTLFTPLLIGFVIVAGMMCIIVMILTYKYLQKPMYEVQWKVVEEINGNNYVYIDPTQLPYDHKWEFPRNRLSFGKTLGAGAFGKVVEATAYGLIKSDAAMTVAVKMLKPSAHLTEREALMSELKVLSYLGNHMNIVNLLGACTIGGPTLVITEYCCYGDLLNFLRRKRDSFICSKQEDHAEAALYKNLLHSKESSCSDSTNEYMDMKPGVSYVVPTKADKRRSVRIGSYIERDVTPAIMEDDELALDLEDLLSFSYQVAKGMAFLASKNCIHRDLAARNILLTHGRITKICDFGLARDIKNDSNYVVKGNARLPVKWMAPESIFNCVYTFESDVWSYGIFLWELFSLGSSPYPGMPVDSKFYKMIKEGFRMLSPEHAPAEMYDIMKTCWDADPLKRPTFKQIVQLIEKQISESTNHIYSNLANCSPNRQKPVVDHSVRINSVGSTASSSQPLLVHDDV

[8] = ADP Hunter Plus, 100 µM ATP, read-out: FLT-3 IC50
[9] = hit definition % inhibition > 40, ligand at 5µM

Oc1ccc(-c2cnc3ccc(NCc4ccc(F)cc4)nn23)cc1 [Compound 1]
pIC50 (FLT3 [1]; [8]): 9.00
pIC50 (PIM-3 [2]): 7.10
JAK2 percentage of inhibition (JAK2): 48%
MET percentage of inhibition (MET): 32%
FLT3 percentage of inhibition (FLT3 [3]): more than 90%

CN1CCC(CNc2ccc3ncc(-c4cccc(OC(F)(F)F)c4)n3n2)CC1 [Compound 3, reference compound]
pIC50 (PIM-3 [4]): 7.34
pIC50 (FLT3 [1]): 8.30
inhibition at 10 µM (IKK-β; inhibitor at 10 µM): 0%
inhibition at 10 µM (MEK1): 11%
Met. Stab. (Human), percentage of the original compound that remained [5]: 31%
Met. Stab. (Mouse), percentage of the original compound that remained [6]: 5%
Met. Stab. (Rat), percentage of the original compound that remained [7]: 23%
Papp at 4 h, 2 µM (PAMPA passive diffusion): 0.0015 ×10⁻⁶ cm/s

Oc1ccc(-n2nnc3ccc(NCc4ccc(F)cc4)nc32)cc1 [Compound 7, 4-[5-(4-Fluoro-benzylamino)-[1], [2], [3]triazolo[4,5-b]pyridin-3-yl]-phenol]
pIC50 (PIM-2): 6.48
pIC50 (PIM-3 [4]): 7.29
pIC50 (FLT3 [1]; [8]): 5.74
FLT3 experimental hit classification (FLT3 [1]): hit
inhibition at 10 µM (FAK; inhibitor at 10 µM, average of two data points, read-out: FAK percentage of inhibition): 38%
KIT improvement in percentage of inhibition (KIT; compound 7 vs compound 1, 10 µM): b (This designation indicates that the improvement in percentage of inhibition was equal or greater than 25%)
KIT experimental hit classification (KIT; hit definition % inhibition > 50, ligand at 10µM): hit
inhibition at 10 µM (KIT; inhibitor at 10 µM, average of two data points, read-out: KIT percentage of inhibition): 51%

CN1CCC(CNc2ccc3nnn(-c4cccc(OC(F)(F)F)c4)c3n2)CC1 [Compound 8, (1-Methyl-piperidin-4-ylmethyl)-[3-(3-trifluoromethoxy-phenyl)-3H-[1], [2], [3]triazolo[4,5-b]pyridin-5-yl]-amine]
pIC50 (PIM-2): 5.31
pIC50 (PIM-3 [4]): 6.14
pIC50 (FLT3 [1]; [8]): 5.88
FLT3 experimental hit classification (FLT3 [1]): hit
FAK experimental hit classification (FAK; [9]): not a FAK hit
inhibition at 5 µM (FAK; inhibitor at 5 µM, average of two data points, read-out: FAK percentage of inhibition): 34%
KIT increment in percentage of inhibition (KIT; compound 8 (5 µM) versus compound 3 (10 µM)): > 50%
KIT improvement in percentage of inhibition (KIT; compound 8 (5 µM) vs compound 3 (10 µM)): c (This designation indicates that the improvement in percentage of inhibition was greater than 50%)
KIT experimental hit classification (KIT; [9]): hit
inhibition at 5 µM (KIT; inhibitor at 5 µM, average of two data points, read-out: KIT percentage of inhibition): 44%
inhibition at 5 µM (IKK-β; inhibitor at 5 µM): 3%
inhibition at 5 µM (MEK1; inhibitor at 5 µM, average of two data points): 33%
Met. Stab. (Human), percentage of the original compound that remained [5]: 77%
increase in metabolic stability in human liver microsomes ([5]; molecule 8 vs compound 3): more than 45%
Met. Stab. (Mouse), percentage of the original compound that remained [6]: 27%
Met. Stab. (Rat), percentage of the original compound that remained [7]: 35%
PAMPA Pe (PAMPA passive diffusion): 0.74 10^-6 cm/s
Papp at 4 h, 2 µM (PAMPA passive diffusion): ~1 ×10⁻⁶ cm/s
